Two compounds from patent US11649233B2, “Halo-allylamine SSAO/VAP-1 inhibitor and use thereof” (Nanjing Transthera Biosciences Co., Ltd., priority 2017, dated 2023) can be followed below.

The target of series [1] is MAO-A (Homo sapiens (Human), UniProt P21397). Nature of the series: Selectivity of the compounds for MAO-A enzyme (MAO-Glo). The series is classed as biochemical. The settings on record: 60 minutes pre-incubation at 37° C. As to the method:
(§1) 2. Selectivity of the Compounds for MAO-A/B Enzymes
(§2) Microplate reader (Perkin Elmer, Envision), 384 well plates (Perkin Elmer), centrifuge (Eppendorf), MAO-Glo™ (Promega), MAO-A (Active Motif) and MAO-B (Active Motif).
(§3) An appropriate amount of the test compound was dissolved in DMSO to 10 mM and stored. Before the experiment, an appropriate amount of 10 mM test compound mother liquor was diluted to 100 μM solution with DMSO. Then 4-fold gradient dilution with DMSO was performed, and 6 concentration gradients were formed.
(§4) The MAO-A/B mother liquor was diluted to 2×concentration enzyme solution with the assay buffer solution for the MAO-A/B.
(§5) The mother liquor of the MAO-A/B substrate mixed solution was diluted to 2×concentration substrate mixed solution with the assay buffer solution for the MAO-A/B.
(§6) 200 nL of compound solutions of different concentrations or solvent
(§7) and 10 μL of 2×MAO-A/B enzyme solution were added to a 384-well plate, evenly mixed by oscillation, and incubated at 37° C. for 60 minutes. Then 10 μL of 2×substrate mixed solution was added to each well, and immediately the detection was performed with the microplate reader in a condition of an exciting light at 535 nm, an emitting light at 587 nm, the fluorescence intensity for detecting each well of 5 minutes/run, and a total detection time of 25 minutes.
(§8) The inhibition rate was calculated according to the following formula: V(RFU/min)=(Ft(RFU)−F0(RFU))/(Time(min)) Inhibition rate (%)=100%−Vcmpd(RFU/min)/V max(RFU/min)×100%
(§9) V: the fluorescence change rate; Ft: fluorescence reading at the time point t; F0: fluorescence reading at the time point 0; Time: time period t; Vcmpd: the fluorescence change rate of the test compound; Vmax: the Max well fluorescence change rate.
(§10) The log values of the concentrations were taken as the X-axis and the percent inhibition rates were taken as the Y-axis, and the dose-effect curve was fitted using the log(inhibitor) vs. response-Variable slope of the analytical software GraphPad Prism 5 to obtain the IC50 value of each compound for enzyme activity.

Series [2] in a line: Stability test in human liver microsome. The following applies: human liver microsome 0.5 mg protein/mL, compound 1 μM, β-NADPH. The series is classed as in vitro ADME. As to the method: Biological Example 3: Stability Test of the Compounds of the Present Invention in Human Liver Microsome
The composition of the incubation system:
(1) The liver microsome (20 mg protein/mL) was removed from the −80° C. refrigerator, pre-incubated in a 37° C. water bath constant temperature oscillator for 3 minutes, and thawed for use.
(2) A mixed solution of the incubation system (excluding compound and β-NADPH) according to the above “composition of the incubation system” for the test was prepared, and pre-incubated in a 37° C. water bath constant temperature oscillator for 2 minutes.
(3) Control group (excluding β-NADPH): 30 μL of water and 30 μL of compound working solution (concentration: 10 μM) were added to 240 μL of the mixed solution of the incubation system of step (2), and vortexed for 30 seconds to mix well. The total reaction volume was 300 μL. A duplicate sample was prepared. The sample was incubated in a 37° water bath constant temperature oscillator. The timing began and the sampling time points were set at 0 minute and 60 minutes.
(4) Sample group: 70 μL β-NADPH solution (10 mM) and 70 μL compound working solution (concentration: 10 μM) were added to 560 μL of the mixed solution in step (2). The total reaction volume was 700 μL. The resulting mixture was vortexed for 30 seconds to mix well. A duplicate sample was prepared. The sample was incubated in a 37° C. water bath constant temperature oscillator. The timing began and the sampling time points were set at 0 minute, 5 minutes, 10 minutes, 20 minutes, 30 minutes, and 60 minutes after timing.
(5) After vortexing for 3 minutes, the sample was centrifuged at 12000 rpm for 5 minutes.
(6) 150 μL of water was added to 50 μL of the supernatant. The resulting mixture was evenly mixed in vortex, and the sample LC/MS/MS analysis was performed.
On the technique in general: Liver microsomes are a subcellular fraction often used to study metabolism.

Series [3] can be described thus: In vitro stability test in the dog plasma. The series is classed as in vitro ADME. The settings on record: Beagle dog plasma, 37° C., 2 hours, 0.2 μM. As to the method:
Biological Example 2: In Vitro Stability Test of the Compound of the Present Invention in the Dog Plasma
Test compound: about 2 mg of test compound was prepared with DMSO into a 5 mM stock solution, then diluted with DMSO to 1 mM solution, and finally diluted with water to 50 μM test compound working solution for use.
Termination solution: about 2 mg of tolbutamide compound was firstly prepared with DMSO into a 1 mg/mL stock solution, finally diluted with acetonitrile to 100 ng/mL termination solution, and stored at 4° C. for later use.
(1) Frozen Beagle dog plasma was pre-incubated and thawed in a 37° C. water bath constant temperature oscillator for use.
(2) 10 μL of test compound (10 μM) was added to 490M (Beagle dog plasma, final concentration of the test substance was 0.2 μM, two duplicate samples.
(3) The sample was evenly mixed in vortex and incubated in a 37° C. water bath constant temperature oscillator.
(4) At the corresponding time points (T=0 h, 0.5 h, 1 h, 2 h; sample at 0 h was not incubated), 400 μL of the termination solution was added to 40 μL of the reaction solution obtained by reacting the test compound of step (2) and the components in the blood plasma, and the resulting mixture was evenly mixed and frozen at −80° C. for storage. […]

The target of series [4] is T1, rhVAP-1 (Homo sapiens (Human), UniProt Q16853). Nature of the series: Inhibition activity of the compounds on the rhVAP-1 enzyme (Amplex Red/HRP fluorescence, benzylamine substrate). The series is classed as biochemical. The following applies: 30 minutes pre-incubation at 37° C. As to the method:
1. Inhibition Activity of the Compounds on the rhVAP-1 Enzyme
Multifunctional microplate reader (MD, FlexStation 3), black bottom-impermeable 96-well plate (Corning), rhVAP-1 (PeproTech)
An appropriate amount of the test compound was dissolved in DMSO to 10 mM and stored. Before the experiment, an appropriate amount of 10 mM test compound mother liquor was diluted to 10 μM solution with DMSO. Then 3-fold gradient dilution with DMSO was performed, and 10 concentration gradients were formed.
An appropriate amount of protein diluent was added to the rhVAP-1 powder to obtain 1 mg/mL of the mother liquor for storage. Before the experiment, the dilution with PBS provided a 4×concentration of the enzyme solution.
An appropriate amount of benzylamine was added to PBS and dissolved to obtain 200 mM of the benzylamine solution. 2 mM Amplex Red mother liquor and 500 U/mL HRP mother liquor were added. The dilution with PBS provided 2×concentration substrate mixed solution.
(§11) First, 10 μL of compound solutions of different concentrations, 25 μL of 4×rhVAP-1 enzyme solution and 15 μL of PBS were added to a 96-well plate, evenly mixed by oscillation, and incubated at 37° C. for 30 minutes. Then 50 μL of 2×substrate mixed solution was added to each well, and immediately the detection was performed with the microplate reader in a condition of an exciting light at 565 nm, an emitting light at 590 nm, the fluorescence intensity for detecting each well of 5 minutes/run, and a total detection time of 25 minutes. The inhibition rate was calculated according to the following formula: V(RFU/min)=(Ft(RFU)−F0(RFU))/(Time(min)) Inhibition rate (%)=100%−Vcmpd(RFU/min)/V max(RFU/min)×100%
as §9, §10

Series [5] concerns the target MAO-B (Homo sapiens (Human), UniProt P27338). The series is described as follows: Selectivity of the compounds for MAO-B enzyme (MAO-Glo). The series is classed as biochemical. The settings on record: 60 minutes pre-incubation at 37° C. As to the method:
as §1, §2, §3, §4, §5, §6, §7, §8, §9, §10

Series [6] addresses T1, rhVAP-1. Nature of the series: Time-dependent inhibition assay for the rhVAP-1 enzyme. The series is classed as biochemical. The protocol:
Biological example 4: Time-dependent inhibition assay for the rhVAP-1 enzyme
After incubation of the test substances at corresponding time intervals according to Table 4, the activity was measured at each time point in the same manner as in the rhVAP-1 enzymatic test method of biological example 1.
as §11, with “Specifically,” for “First,”, “concentrations or solvent,” for “concentrations,”, “0 minutes, 3 minutes, 6 minutes, 9 minutes and 12” for “30”, “minutes.” for “minutes. The inhibition rate was calculated according to the following formula: V(RFU/min)=(Ft(RFU)−F0(RFU))/(Time(min)) Inhibition rate (%)=100%−Vcmpd(RFU/min)/V max(RFU/min)×100%”

Structures are written as SMILES. Structures can show the parent of a compound that is named as a salt.

T1 sequence (Q16853 whole entry): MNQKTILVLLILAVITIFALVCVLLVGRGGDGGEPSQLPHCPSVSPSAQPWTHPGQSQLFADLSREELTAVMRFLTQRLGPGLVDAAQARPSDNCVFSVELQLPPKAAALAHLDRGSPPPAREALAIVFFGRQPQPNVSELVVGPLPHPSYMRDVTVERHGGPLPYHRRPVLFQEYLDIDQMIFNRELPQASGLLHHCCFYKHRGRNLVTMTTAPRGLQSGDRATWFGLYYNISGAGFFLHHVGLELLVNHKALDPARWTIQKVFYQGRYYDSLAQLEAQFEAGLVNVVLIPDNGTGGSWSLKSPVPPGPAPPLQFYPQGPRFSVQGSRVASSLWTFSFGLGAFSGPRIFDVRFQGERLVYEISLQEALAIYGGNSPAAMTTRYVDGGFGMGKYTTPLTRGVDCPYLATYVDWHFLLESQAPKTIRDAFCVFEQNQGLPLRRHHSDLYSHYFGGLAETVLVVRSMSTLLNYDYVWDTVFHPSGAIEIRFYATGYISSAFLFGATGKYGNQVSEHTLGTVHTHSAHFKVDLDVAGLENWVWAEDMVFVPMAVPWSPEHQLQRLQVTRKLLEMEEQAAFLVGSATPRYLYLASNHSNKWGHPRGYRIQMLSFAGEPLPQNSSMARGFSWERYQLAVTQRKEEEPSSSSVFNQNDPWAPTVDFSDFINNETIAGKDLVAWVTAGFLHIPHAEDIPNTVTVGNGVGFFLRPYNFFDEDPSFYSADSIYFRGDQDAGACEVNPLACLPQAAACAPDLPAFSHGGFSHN
MAO-B, sequence (P27338 whole entry): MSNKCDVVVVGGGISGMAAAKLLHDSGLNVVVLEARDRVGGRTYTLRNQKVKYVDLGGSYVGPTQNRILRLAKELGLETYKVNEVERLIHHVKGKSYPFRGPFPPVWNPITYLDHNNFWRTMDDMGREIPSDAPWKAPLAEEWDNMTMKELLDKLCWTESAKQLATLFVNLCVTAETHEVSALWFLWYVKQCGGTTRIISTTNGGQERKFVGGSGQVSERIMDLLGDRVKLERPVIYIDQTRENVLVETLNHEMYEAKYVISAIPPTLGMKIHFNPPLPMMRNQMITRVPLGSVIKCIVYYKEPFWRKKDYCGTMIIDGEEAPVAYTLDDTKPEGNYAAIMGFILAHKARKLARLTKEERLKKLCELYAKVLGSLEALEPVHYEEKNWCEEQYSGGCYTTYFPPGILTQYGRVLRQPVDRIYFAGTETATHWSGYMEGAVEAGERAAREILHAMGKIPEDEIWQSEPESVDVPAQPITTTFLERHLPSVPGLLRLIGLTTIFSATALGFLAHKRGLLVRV
MAO-A, sequence (P21397 whole entry): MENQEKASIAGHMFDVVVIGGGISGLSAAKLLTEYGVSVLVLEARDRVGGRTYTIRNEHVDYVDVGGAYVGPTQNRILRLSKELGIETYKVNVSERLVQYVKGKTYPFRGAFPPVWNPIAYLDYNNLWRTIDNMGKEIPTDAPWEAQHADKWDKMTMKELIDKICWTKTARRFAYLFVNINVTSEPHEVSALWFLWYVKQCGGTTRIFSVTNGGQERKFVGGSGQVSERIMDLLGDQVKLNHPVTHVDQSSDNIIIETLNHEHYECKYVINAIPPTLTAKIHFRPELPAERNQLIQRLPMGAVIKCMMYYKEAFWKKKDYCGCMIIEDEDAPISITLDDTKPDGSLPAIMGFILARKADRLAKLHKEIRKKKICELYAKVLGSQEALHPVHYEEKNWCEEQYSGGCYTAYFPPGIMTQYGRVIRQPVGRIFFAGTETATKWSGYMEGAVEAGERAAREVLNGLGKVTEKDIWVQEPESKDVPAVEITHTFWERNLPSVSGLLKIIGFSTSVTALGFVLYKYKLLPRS

`NC/C(=C\F)COc1ccc2c(c1)CCN(C1CC1)C2=O` [Hydrochloride of Compound 5, (E)-6-((2-(aminomethyl)-3-fluoroallyl)oxy)-2-cyclopropyl-3,4-dihydroisoquinolin-1(2H)-one]: the results for the IC50 in series [1], in series [4] and in series [5] were 1300 nM, 18 nM and 6300 nM, respectively. The same compound yielded a ClH in series [2] of 4.63 mL/min/kg. In series [3], the “Retention Rate” value came to 98.6%.
`NC/C(=C/F)COc1ccc2c(n1)CCN(C1CC1)C2=O` [Trifluoroacetate of Compound 23, (Z)-2-((2-(aminomethyl)-3-fluoroallyl)oxy)-6-cyclopropyl-7,8-dihydro-1,6-naphthyridin-5(6H)-one]: the half-maximal inhibitory concentration (IC50) – broadly, the concentration that inhibits the measured activity by half – in series [1] is 10000 nM; in series [6] (pre-incubation 0 minute), 206 nM; in series [6] (pre-incubation 3 minutes), 18.6 nM; in series [6] (pre-incubation 6 minutes), 15.2 nM; in series [6] (pre-incubation 9 minutes) it was 14 nM; in series [6] (pre-incubation 12 minutes), 12.5 nM. In addition, the IC50 in series [4] worked out at 14 nM; in series [5], 19000 nM.
